In ChEMBL document CHEMBL3507680, “University of Dundee, Gates Library screen for HepG2 cell viability”:

Experiment: Human HepG2 cell viability assay in 384 well format
Format: toxicity, cell-based
Parameters: dose 125 nL, time 70.5 hour; cytotoxicity at 70.5 h: concentration not given beside the values
Conditions: HepG2 cells, read-out: Inhibition

| SMILES | cytotoxicity at 70.5 h [%] |
| --- | --- |
| Cc1cc(-c2cnc(N3CCCC(C)C3)nc2C(C)C)on1 (stereo not drawn) | 18.8 |
| CCC(=O)NCCc1cc2nc(-c3ccncc3)ccn2n1 | -5.77 |
| Cc1nc2cc(C3CCN(C(=O)c4ccccn4)CC3)nn2c(O)c1C | 44.6 |
| Cc1ncc(C(=O)N2CC(C(=O)N3CCOCC3)C2)c(C)n1 | -12.5 |
| O=C(Cn1c(=O)n(Cc2ccco2)c2ncccc21)NC1CCCC1 | -7.12 |
| Cc1cc(-c2cnc(N3CCOCC3)nc2-c2ccc(C)s2)on1 | -3.57 |
| Cc1cc(-c2cnc(N3CCSCC3)nc2-c2ccc(C)s2)on1 | -7.01 |
| Cc1cc(-c2cnc(N3CCCC3)nc2-c2ccc(C)s2)on1 | -6.38 |
| COCCC(=O)N1CCCC1c1csc(Nc2ccccn2)n1 (stereo not drawn) | 21.7 |
| CNc1ccc(CC2CCCN(C(=O)c3cccc(C)n3)C2)nn1 (stereo not drawn) | -0.376 |
| COCC(=O)N1CCCC(c2cccc(-n3ccnc3)n2)C1 (stereo not drawn) | 4.64 |
| COc1ccc(C)cc1CC(=O)N1CC[C@@]2(CCCO2)[C@@H](O)C1 | -5.66 |
| CO[C@H]1CN(Cc2cc(F)ccc2F)CC[C@@]12CCCO2 | -2.25 |
| Cc1cnccc1CN1CC[C@H](Oc2cccc(F)c2)[C@@](C)(O)C1 | 0.441 |
| C[C@]1(O)CN(Cc2cccc(C(=O)O)c2)CC[C@@H]1Oc1cccc(F)c1 | -4.99 |
| CN(C)c1ccc(CC2COCCN(Cc3nccn3C)C2)nn1 (stereo not drawn) | -0.733 |
| NC(=O)CN1CCC(c2cc(C(F)(F)F)n3ccnc3n2)CC1 | -3.15 |
| Cc1cccc(Nc2cc(C)nc(C3CCCCN3CC(N)=O)n2)n1 (stereo not drawn) | -4.2 |
| CCn1ccc(C(=O)N2CCOC(c3nc(-c4cccs4)no3)C2)n1 (stereo not drawn) | -4.33 |
| COCC(=O)N1CCCC1c1nccnc1Nc1ncccn1 (stereo not drawn) | -3.81 |
| Cc1c[nH]nc1C1CCCN(C(=O)c2c(C)noc2C)C1 (stereo not drawn) | -1.16 |

| SMILES | cytotoxicity at 70.5 h [%] |
| --- | --- |
| Cn1nccc1CCC(=O)N1CCCC(Cc2cccnc2)C1 (stereo not drawn) | -5.31 |
| CNc1cncc(C2CCCN2Cc2ccn(C)n2)n1 (stereo not drawn) | -1.7 |
| Cc1ncsc1C(=O)N1CCC(O)(CN2CCc3ccccc3C2)C1 (stereo not drawn) | 10.1 |
| Cc1ccc(C(=O)N2CCC(O)(CN3CCc4ccccc4C3)C2)s1 (stereo not drawn) | -2.78 |
| CCc1nccn1-c1cncc(C2CCCN2Cc2ccccn2)n1 (stereo not drawn) | -7.66 |
| Cc1ccn(CCC(=O)N2CCCC(Cc3cccnc3)C2)n1 (stereo not drawn) | -5.66 |
| Cc1ncsc1-c1nnc(C2CCN(Cc3ccccc3)CC2)o1 | -1.36 |
| COCC(=O)N1CCCC1c1cc(N2CCN(C(C)=O)CC2)cc(C)n1 (stereo not drawn) | 22.7 |
| NC[C@H]1CC[C@H](C(NC(=O)C2CC2)c2ccccn2)CC1 (stereo partly drawn) | -6.56 |
| CC(=O)N1CCCC1c1cc(N2CCN(CC3CC3)CC2)cc(C)n1 (stereo not drawn) | -1.76 |
| CC(=O)N1CCCCC1c1nc2c(c(NC3CCCC3)n1)CN(C)CC2 (stereo not drawn) | 17 |
| COc1cccc(C(=O)N2CCCC2c2ncc3c(n2)CCN(C)C3)c1 (stereo not drawn) | -0.392 |
| CCCC(=O)N1CCc2nc3cc(OC)c(OC)cc3c(=O)n2CC1 | -5.67 |
| CC(=O)NC[C@]1(O)CCN(C(=O)c2ccc(F)c(Cl)c2)C[C@H]1O | -6.22 |
| Cc1ccsc1CN(CCCN(C)C)Cc1ccccn1 | -3.09 |
| Cc1ccsc1C(=O)N1CCC2(CC(N(C)c3ccncn3)C2)C1 (stereo not drawn) | -4.77 |
| Cc1csc(C(=O)N2CCC3(CC(N(C)c4ccncn4)C3)C2)c1 (stereo not drawn) | -5.37 |
| Nc1cc(CCC2CN(Cc3ccc4c(c3)OCCO4)CCO2)ccn1 (stereo not drawn) | 0.977 |
| Nc1cc(CCC2CN(Cc3ccc4cc[nH]c4c3)CCO2)ccn1 (stereo not drawn) | 20.8 |
| CN(c1ccncn1)C1CC2(CCN(C(=O)Cc3cccs3)C2)C1 (stereo not drawn) | -6.91 |
| Cc1csc(C(=O)N2CC[C@H](Oc3cccnc3C)[C@@H](O)CC2)c1 | 14 |

| SMILES | cytotoxicity at 70.5 h [%] |
| --- | --- |
| Cn1ccc(C(=O)N2CCC(Cc3cccc4ncccc34)C2)n1 (stereo not drawn) | -1.84 |
| C[C@]1(O)CN(CC(=O)N2CCCC2)CC[C@@H]1Oc1cccc(F)c1 | 17.5 |
| CC(C)c1nccn1-c1cccc(C2CCCN(S(=O)(=O)N(C)C)C2)n1 (stereo not drawn) | -3.37 |
| O=C(c1cnccn1)N1CCCC(Cc2cccc3ncccc23)C1 (stereo not drawn) | -4.96 |
| CNc1ccc(CC2CCCN(C(=O)c3cnco3)C2)nn1 (stereo not drawn) | -9.21 |
| O=C(c1cnccn1)N1CCCC(c2cccc(-n3ccnc3)n2)C1 (stereo not drawn) | 11.1 |
| OCCC1(NCc2ccc(-n3cccn3)cc2)CCOCC1 | -2.65 |
| O=C(O)c1ccn(-c2ccc(NC(=O)c3ccccc3Cl)cc2)n1 | 11.9 |
| CCC(c1ccc(F)cc1F)S(=O)(=O)CCO (stereo not drawn) | -1.73 |
| CCC(c1ccccc1)S(=O)(=O)CCO (stereo not drawn) | -2.1 |
| CN1CCN(CCNC(=O)c2sccc2C2CC2)CC1 | -2.66 |
| CN(Cc1ccc(F)cc1)Cc1cc2c(cc1Br)OCCO2 | -8.04 |
| CC(C)(C)NC(=O)CN1CCCNCC1 | -0.58 |
| CN(Cc1ccccc1F)Cc1cc2c(cc1Br)OCCO2 | -9.57 |
| Cn1ccnc1CN1CCCC1CCc1ccccc1 (stereo not drawn) | 2.44 |
| Cc1csc(C(C)(C)NCCOc2ccc(CC#N)cc2)n1 | -0.219 |
| Cc1cnn(CCNCC(=O)N2CCN(c3ccccn3)CC2)c1 | 8.76 |
| CS(=O)(=O)c1ccc(NC(=O)NCCC2=CCCCC2)cc1 | -10.3 |
| COCc1ccccc1NC(=O)CCNC(=O)c1ccoc1 | -13.1 |
| CN(CCc1ccccn1)C(=O)Nc1cccnc1-n1cccn1 | -16.2 |
| FC(F)(F)c1nc(NC2CCc3ncnn3C2)c2ccccc2n1 (stereo not drawn) | 24.8 |

| SMILES | cytotoxicity at 70.5 h [%] |
| --- | --- |
| COC(=O)C1CCN(C(=O)Cn2ccc(-c3ccc(F)cc3)n2)CC1 | -8.67 |
| O=C(Cn1ccc(-c2ccccc2)n1)N1CCN(C(=O)C2CC2)CC1 | -2.62 |
| Cc1cnn(CCNCC(=O)N2CCN(c3ncccn3)CC2)c1 | -4.23 |
| Cc1sc2ccccc2c1S(=O)(=O)NCCNC(=O)C(C)C | -7.05 |
| COCc1c(Cl)cccc1NC(=O)CNC(=O)C(C)(C)C | -4.66 |
| CCc1cccnc1NCc1cnc(N2CCOCC2)nc1 | 20.6 |
| CCOCCC(=O)Nc1cccc(Cl)c1COC | -2.76 |
| Cc1nc(NCc2ccc(F)cc2)cc(C2CCCN2)n1 (stereo not drawn) | -2.67 |
| Cn1ccnc1CNC(=O)c1ccnc(C2CCNCC2)c1 | -6.57 |
| O=C(NCC(F)F)c1cnc(C2CCCN2)cn1 (stereo not drawn) | -3.12 |
| NCC(=O)N1CCCC1c1nccnc1Nc1ncccn1 (stereo not drawn) | -1.95 |
| COc1ncc(C2(O)CCN(Cc3ccc(F)c(F)c3)CC2)c(OC)n1 | -3.5 |
| COc1ccc(-c2ccc(C3CNCCO3)nc2)cc1 (stereo not drawn) | -5.61 |
| CNc1cc(C2CCCNC2)nc(C)n1 (stereo not drawn) | 16.2 |
| COc1ccccc1CN(Cc1cccnc1)CC1CCCO1 (stereo not drawn) | -1.02 |
| CN(C)CCN(C(=O)Cc1ccc2c(c1)OCCO2)C1CCN(C)CC1 | 2.11 |
| CCCN(Cc1cccnc1)C1CC(C)(C)NC(C)(C)C1 | -3.34 |
| CC1(C)CC(N(Cc2cccnc2)Cc2cccc(F)c2)CC(C)(C)N1 | 2.01 |
| CCCOc1ccccc1CN[C@@H]1CCC[C@H]1Cc1cc(C)no1 | 23.6 |
| Cc1cc(C[C@@H]2CCC[C@H]2NCc2cc(F)ccc2F)on1 | -1.78 |
